Results published in US11384097B2, “Tetrahydroisoquinoline derivative, preparation method therefor and use thereof” (ZHEJIANG HISUN PHARMACEUTICAL CO., LTD., priority 2018, dated 2022).
Like-named read-outs stand apart in the source and are kept apart here.

Experiments:
[1] = Metabolic stability in rat liver microsomes; assay type: in vitro ADME; settings: rat liver microsomes 0.5 mg/mL, 1 μM compound, NADPH 1 mM; read-out: Half-life/(T1/2, min)
Description: Test Example 2. Study on the Metabolic Stability of the Compound of the Present Disclosure in Rat Liver Microsomes
The purpose of this experiment is to study the metabolic stability of the compounds of the present disclosure in rat liver microsomes.
The compounds were incubated with rat liver microsomes and coenzyme NADPH was added to initiate the reaction. At 0, 5, 15, 30 and 60 minutes, 20 μL of incubation solution was taken out and transferred to 200 μL of acetonitrile containing internal standard to stop the reaction. After protein precipitation, the resulting mixture was centrifuged at 3,700 rpm for 10 minutes, and the supernatant was taken. The supernatant was diluted 1:1 with water and analyzed by LC-MS/MS method. According to the elimination half-life of the test compound in the incubation system, the in vitro intrinsic clearance rate was calculated. Midazolam was used as the internal reference compound and all incubations were performed in duplicate in parallel.
The peak area ratio analyte/internal standard (Aanalyte/AIS) is obtained by the instrument, and the remaining percentage (% Control) is calculated from the ratio Aanalyte/AIS in the non-zero time point sample to the zero time point sample. Ln (% Control) against incubation time is plotted and a linear fit was performed.

[2] = Pharmacokinetic study in SD rats (intravenous injection and intragastric administration); assay type: in vivo, Sprague Dawley (SD) rats; settings: for bioavailability / half-life / AUC(0-inf) / MRT: male, Sprague-Dawley, rat, plasma; for bioavailability: Oral (10 mg/kg) vs Injection (1 mg/kg), read-out: Bioavailability F(%); for half-life: read-out: Half-life T1/2 (converted); for AUC(0-inf): read-out: area under curve AUC0-∞; for MRT: read-out: residence time MRT
Description: Test Example 3. Oral Pharmacokinetic Studies of the Compounds of the Present Disclosure in SD Rats
SD rats were used as the experimental animal. The rats were intravenously injected or intragastrically administered with the compounds of the present disclosure, and the drug concentrations in plasma at different times were tested by LC/MS/MS methods, so as to research the pharmacokinetic characteristics of compounds of present disclosure in rats.
Forty-eight healthy adult Sprague Dawley (SD) male rats were purchased from Weitong Lihua Laboratory Animal Technology Co., Ltd., production license number: 11400700271077.
48 healthy adult male SD rats were fasted overnight and administered via tail vein injection (at a dosage of 1 mg/kg) and intragastrically administered (at a dosage of 10 mg/kg), respectively. The rats were fed 4 h after the administration.
About 0.2 mL of blood was collected from the jugular vein before administering and at 0.083 hours, 0.25 hours, 0.5 hours, 1 hour, 2 hours, 4 hours, 8 hours, 12 hours, and 24 hours after administering, and heparin sodium was used for anticoagulation. Blood samples were collected and placed on ice, and plasma was separated by centrifugation (centrifugation conditions: 1500 g, 10 min). The collected plasma was stored at −40° C.-20° C. before analysis.
10 μL of plasma sample was taken and 400 μL of acetonitrile (containing internal standard working solution, comprising 5 ng/mL verapamil and 50 ng/mL glibenclamide) was added. The resulting mixture was vortexed for 10 minutes, and centrifuged at 3700 rpm for 10 minutes. 70 μL of the supernatant was taken, and […] of water was added. The resulting mixture was vortexed for 10 minutes, and 2 μL of the mixture was transferred to the LC-MS/MS for sample analysis.

Human AT2R = target: T1, Human AT2R (Homo sapiens, UniProt P50052); test: Antagonistic activity assay on human AT2R ligand binding (Tag-lite HTRF, Tb-labeled-AT2R cells); settings: AT2 ligand binding, red agonist fluorescent ligand
T1 construct: Terbium (Tb) donor label on the receptor; From my own knowledge, the Tag-lite format usually uses an N-terminal SNAP-tag fusion labelled with Lumi4-Tb; expressed in transfected cells
T1 sequence (P50052 1-363): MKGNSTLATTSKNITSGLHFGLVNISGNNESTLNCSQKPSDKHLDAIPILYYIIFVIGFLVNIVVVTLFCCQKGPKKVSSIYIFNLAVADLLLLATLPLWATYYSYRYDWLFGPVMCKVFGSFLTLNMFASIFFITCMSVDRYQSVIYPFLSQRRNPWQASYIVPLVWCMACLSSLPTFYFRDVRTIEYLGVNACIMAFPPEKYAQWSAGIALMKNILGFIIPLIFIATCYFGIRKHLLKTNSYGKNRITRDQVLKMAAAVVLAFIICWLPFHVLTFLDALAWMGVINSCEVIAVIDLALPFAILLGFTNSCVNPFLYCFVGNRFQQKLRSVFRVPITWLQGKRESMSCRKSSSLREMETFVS
Description: Antagonistic Activity Assay of the Compound of the Present Disclosure on Human AT2R Ligand Binding
According to standard methods, all compounds were dissolved in dimethyl sulfoxide and prepared as 10 mM stock solutions.
(3) Each of the diluted compound in step (2) was transferred to a working plate (3657, Corning) at 160 nL/well, at 200 g, at room temperature for 1 minute;
(4) 40 μl 1×TLB was added to the above working plate, and it was centrifuged at 200 g (centrifugal force) at room temperature for 1 minute, shook on a shaker for 15 minutes to mix well, and centrifuged at 200 g (working concentration of the compound was 4×) at room temperature for 1 minute for later use;
(6) 5 mL 1×TLB was taken in a 15 mL centrifuge tube;
(7) a Tb-labeled-AT2R cells were frozen and thawed in a 37° C. water bath until the ice was completely melted (1-2 minutes);
(8) The frozen and thawed cells were rapidly transferred to the 1×TLB in step (6), and the resulting solution was mixed gently, and then centrifuged at 1200 g at room temperature for 5 minutes;
After being mixed well, the resulting mixture was placed at room temperature for late use;
(11) The reaction plate was centrifuged at 200 g at room temperature for 1 minute, and stood for 1 hour at room temperature of 25° C., and then it was centrifuged at 200 g at room temperature for 1 minute. The data was collected using Envision HTRF microplate reader, and IC50 was calculated using a nonlinear fitting formula.

[3] = iv, Injection (1 mg/kg), tail vein

For `COc1ccc(COc2c(OC)ccc3c2C[C@@H](C(=O)O)N(c2nc4ccc(F)cc4o2)C3)cc1` [Example 30, (S)-2-(6-fluorobenzo[d]oxazol-2-yl)-6-methoxy-5-((4-methoxybenzyl)oxy)-1,2,3,4-tetrahydroisoquinoline-3-carboxylic acid], the half-life at 1 µM [1] was 251 min, the “Half-life T1/2” value ([2]; Injection (1 mg/kg), tail vein) was 2.4 ± 0.8 h and the bioavailability [2] was 22.1%. The half-life ([2]; Oral (10 mg/kg)) was 198 ± 30 min, the AUC(0-inf) ([2]; Oral (10 mg/kg)) was 7130 ± 1630 ng·h/mL and the MRT ([2]; Oral (10 mg/kg)) was 3.6 ± 0.4 h. The AUC(0-inf) [2, 3] was 3230 ± 659 ng·h/mL, the MRT [2, 3] was 1.2 ± 0.4 h and the IC50 (Human AT2R) was 4 nM.
For `COc1ccc2c(c1OCc1ccccc1)C[C@@H](C(=O)O)N(c1nc3ccc(C#N)cc3o1)C2` [Example 15, (S)-5-(Benzyloxy)-2-(6-cyanobenzo[d]oxazol-2-yl)-6-methoxy-1,2,3,4-tetrahydroisoquinoline-3-carboxylic acid], the half-life at 1 µM [1] was 317 min, the “Half-life T1/2” value ([2]; Injection (1 mg/kg), tail vein) was 4.2 ± 1.2 h and the bioavailability [2] was 47.3%. For the same compound, the half-life ([2]; Oral (10 mg/kg)) was 282 ± 78 min, the AUC(0-inf) ([2]; Oral (10 mg/kg)) was 45400 ± 11900 ng·h/mL and the MRT ([2]; Oral (10 mg/kg)) was 6.3 ± 1.1 h. The AUC(0-inf) [2, 3] was 9590 ± 579 ng·h/mL, the MRT [2, 3] was 2 ± 0.6 h and the IC50 (Human AT2R) was 36 nM.
